In one data set the test system is LNCaP. More on the design: method as in PMID 34681843. To be noted: AR positive, three days, MTS; cited from earlier work.
Data set [1] deals with LAPC-4 xenografts. The data set is described as follows: Cholesterol/lipid panel in plasma (method B, hospital laboratory). Type of data set: in vivo, mice. Here is the method: Total cholesterol, triglycerides, cholesterol-HDL (high-density lipoproteins), cholesterol-LDL (low-density lipoproteins), cholesterol non-HDL, and the ratio of total cholesterol/cholesterol-HDL were determined in the plasma of mice treated PO with RM-581 (3, 10, and 30 mg/kg) or abiraterone acetate (60 mg/kg). Analyses were performed at the CHU de Québec/L’Enfant-Jésus (Medical Hospital Laboratory; Project N°: 9014625056) using a Cobas Lipid Panel from Roche.

The subject of data set [2] is LAPC-4 xenografts. An excerpt:
The xenograft experiment was approved by the Université Laval Animal Care Committee (Comité de Protection des Animaux de l’Université Laval, Québec, QC, Canada) and carried out in an animal facility approved by the Canadian Council on Animal Care (CCAC). Homozygous male Balb/c athymic nude mice (~42 days old, weighing approximately 28 g) were obtained from Charles River Inc. (Saint-Constant, QC, Canada) and housed (4 to 5) in vinyl micro-isolated ventilated cages equipped with air lids. Cages were kept in laminar airflow hoods and maintained in pathogen-limiting conditions. The animals were housed under a controlled environment at 22 ± 3 °C with 50 ± 20% relative humidity and light set at 12 h/day (light on at 07:15) during the acclimatization and study periods. Sterile water and rodent food (Rodent Diet #T.2018.15, Harlan Teklad, Madison, WI, USA) were provided ad libitum.
After an acclimatization period of 5 days, the mice were inoculated into both flanks by subcutaneous (SC) injection of 4 × 10^6 LAPC-4 cells (Passage 14) in 0.1 mL of growth medium containing 50% Matrigel (BD Biosciences, Mississauga, ON, Canada) via a 2.5-cm long 22-gauge needle. Two weeks later, mice that developed tumors were randomized according to tumor volume, divided into […] groups (Gr-1 to Gr-8), and treated over a period of 28 days. A bilateral orchiectomy was performed under isoflurane-induced anesthesia for Gr-1 but not for Gr-2 to Gr-8. Both Gr-1 (CTX control (CTL), 9 mice, 16 tumors) and Gr-2 (intact CTL, 9 mice, 18 tumors) were treated with 0.1 mL of the vehicle alone (8% DMSO/92% propylene glycol (PG) administered by gavage (PO). Gr-3 (30 mg/kg/PO, 10 mice, 19 tumors) received 0.843 mg of RM-581. Gr-4 (10 mg/kg/PO, 10 mice, 20 tumors) received 0.281 mg of RM-581. Gr-5 (3 mg/kg/PO, 10 mice, 18 tumors) received 0.084 mg of RM-581. Gr-6 (60 mg/kg/SC, 9 mice, 18 tumors) received 1.686 mg of abiraterone. Gr-7 (60 mg/kg/PO, 9 mice, 17 tumors) received 1.686 mg of abiraterone acetate. Gr-8 (4 mg/kg/IP, 9 mice, 17 tumors) received 0.112 mg of docetaxel.
RM-581 and abiraterone acetate were administered six days a week PO; abiraterone was administered six days a week SC; and docetaxel was administered twice a week by intraperitoneal (IP) injection. RM-581 was first dissolved in DMSO, and thereafter we added PG to obtain the appropriate concentration in the vehicle fluid (8% DMSO/92% PG). Abiraterone acetate and abiraterone were dissolved in 0.3% hydroxypropyl cellulose in saline (0.9% NaCl), while docetaxel was first dissolved in DMSO, and thereafter we added phosphate-buffered saline (PBS) to obtain the proper concentration in the carrier fluid (0.5% DMSO/99.5% PBS). All solutions were prepared one day prior to the initiation of treatment and stored at 4 °C under constant agitation.
The mice were weighed at the start and end of the protocol. Tumor area (mm^2) was calculated twice a week using two perpendicular diameters (L and W), which were recorded using a caliper, and the formula L/2 × W/2 × π. The area measured on the first day of treatment was fixed at 100%. At the end of the studies and 3 h after the last treatment, the mice were terminally anesthetized, and their final body weights were measured. Tumors, liver, kidney, and total prostate were collected from mice during necropsy, while blood was collected by cardiac puncture. Tissues and plasma were immediately frozen at −80 °C until analysis.

The nature of data set [3]: Toxicity during LAPC-4 xenograft protocol (signs, body weight, histopathology). Type of data set: in vivo, mice. To be noted: 28 days. An excerpt:
Tissue samples from xenograft experiments were fixed in neutral buffered 10% formalin and processed for routine paraffin embedding. Tissue sections (3 µm) were stained with hematoxylin and eosin (HE) and histologically observed by an independent pathologist. Digital images at 20× magnification of each slide were obtained using the slide scanner NanoZoomer 2.0-HT (Hamamatsu, Bridgewater, NJ, USA). Whole-section images were visualized using the software NDP View (Hamamatsu, Bridgewater, NJ, USA).

For the next data set, the system named is LAPC-4 cells. Nature of the data set: LAPC-4 cell viability proliferation and combination index assays (MTS, 6 days). Type of data set: cell-based. To be noted: Homo sapiens, LAPC4, 144 h, LAPC-4, six days of treatment; read-out: IC50, mean of three experiments (Figure 2A).
A further data set has as its system 22Rv1. Nature of the data set: PCa cell viability proliferation screening (MTS), 22Rv1. The format is cell-based. To be noted: Homo sapiens, 72 h, 22Rv1, AR positive, three days. As for the experimental part:
VCaP (4 × 10^4 cells/well) were seeded in 96-well plates in DMEM media supplemented with 10% fetal bovine serum (FBS), penicillin, streptomycin, and sodium pyruvate. 22Rv1 cells (2 × 10^3 cells/well) and LAPC-4 cells (6 × 10^3 cells/well) were seeded in 96-well plates in RPMI media supplemented with 10% FBS, penicillin, streptomycin, and sodium pyruvate. The cells were incubated at 37 °C in a 5% CO2 humidified atmosphere for 24 h before treatment with multiple concentrations of RM-581 dissolved in dimethyl sulfoxide (DMSO). The concentrations used were between 0.01 μM and 50 μM. Treatment lasted for 3 days for all the cell lines except VCaP cells, which were treated for 7 days due to slower proliferation rates. At the end of the assay, 20 μL of MTS (Cell Titer 96 Aqueous, Promega, Nepean, ON, Canada) were added to each well, and the mixture was incubated for 4 h at 37 °C. The plates were subsequently analyzed at 490 nm using a Tecan M-200 microplate reader (Männedorf, Switzerland).

Read-outs that look alike come from different tables or passages of the source.

The IC50 is the concentration needed to halve the response being measured. For the compound `C#C[C@]1(O)CC[C@H]2[C@@H]3CCc4cc(OC)c(N5CCN(C(=O)[C@@H]6CCCN6C(=O)c6ccc7ccccc7n6)CC5)cc4[C@H]3CC[C@@]21C` [RM-581], the IC50 in the data set on LNCaP was 1200 nM; in the data set with LAPC-4 cells, 430 ± 130 nM; with 22Rv1, 1380 nM. Besides, in the data set with LAPC-4 xenografts [1] (10 mg/kg PO, NS vs CTL), the “T-CHOL (total cholesterol), plasma” value is 1182 ± 338 (NS) µg/mL. Moreover, the “plasma triglycerides, cholesterol-HDL, -LDL, non-HDL, ratio total cholesterol/cholesterol-HDL vs control” value with LAPC-4 xenografts [1] (Figure S3) is listed as “no significant difference”. Further, the results for the “time to significant difference with intact (untreated) group” value with LAPC-4 xenografts [2] (3 mg/kg PO), in the data set on LAPC-4 xenografts [2] (10 mg/kg PO) and in the data set with LAPC-4 xenografts [2] (30 mg/kg PO) were 14 days, 7 days and 7 days, respectively. Moreover, the tumor growth result with LAPC-4 xenografts [2] (3 mg/kg PO, 6 days per week) was “tumors returned to their original size after 22 days”. Moreover, the “tumor size compared with 30 mg/kg group” value with LAPC-4 xenografts [2] (10 mg/kg PO, 6 days per week, day 28) is listed as “identical at the end of the protocol”. Also, in the data set on LAPC-4 xenografts [2] (30 mg/kg PO, 6 days per week, day 28), the “reduction in the initial tumor size at end of protocol” value amounted to 88%. In the data set on LAPC-4 xenografts [2] (LAPC-4 xenograft, PO), the “effective oral doses for tumor regression” value lay within 3 to 30 mg/kg. Also, the “signs of toxicity during xenograft protocol” value in data set [3] (nude mice, 3, 10, 30 mg/kg PO) was “no signs of apparent toxicity”. Also, in data set [3] (nude mice), the “body weight of treated vs untreated mice” value was “no significant difference”. Further, the “histology of liver, kidney and prostate (HE)” value in data set [3] (nude mice) is recorded as “tissue morphology was not affected”.

The values are drawn from publication PMC10252594 (Cancers, 2023).
